Experimental data from PubChem BioAssay AID330 (DTP/NCI, 2004).
Values joined by “and” are separate entries in the source; they are usually repeats but may differ in a detail not shown here. Identical values can stand only once. Toxic doses and inconclusive results are not listed. Rule for the calls: active = survival T/C of 150% or more; inactive = T/C below 125% in these data.

Test system: P388 leukemia ip, CD2F1 mice, survival T/C
Test: NCI In Vivo Anticancer Drug Screen. Data for tumor model P388 Leukemia (intraperitoneal) in CD2F1 (CDF1) mice
Conditions: endpoint: median survival time, higher = longer survival
Summary of the method: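 Mice carrying the transplanted tumor received test compound or vehicle. Survival was recorded in each group, and the value is the treated-group measurement divided by that of the vehicle-treated control group.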

[1] = dose: 50.0 mg/kg/injection, schedule: Q01DX005 (ip), vehicle: saline
[2] = dose: 100.0 mg/kg/injection, schedule: Q01DX005 (ip), vehicle: saline
[3] = dose: 200.0 mg/kg/injection, schedule: Q01DX005 (ip), vehicle: saline
[4] = dose: 50.0 mg/kg/injection, schedule: Q01DX009 (ip), vehicle: saline with Tween-80
[5] = dose: 100.0 mg/kg/injection, schedule: Q01DX009 (ip), vehicle: saline with Tween-80
[6] = dose: 200.0 mg/kg/injection, schedule: Q01DX009 (ip), vehicle: saline with Tween-80
[7] = dose: 50.0 mg/kg/injection, schedule: Q01DX005 (ip), vehicle: Klucel (hydroxypropylcellulose) (HPC)
[8] = dose: 100.0 mg/kg/injection, schedule: Q01DX005 (ip), vehicle: Klucel (hydroxypropylcellulose) (HPC)
[9] = dose: 200.0 mg/kg/injection, schedule: Q01DX005 (ip), vehicle: Klucel (hydroxypropylcellulose) (HPC)
[10] = dose: 50.0 mg/kg/injection, schedule: Q01DX005 (ip), vehicle: saline with Tween-80
[11] = dose: 100.0 mg/kg/injection, schedule: Q01DX005 (ip), vehicle: saline with Tween-80
[12] = dose: 200.0 mg/kg/injection, schedule: Q01DX005 (ip), vehicle: saline with Tween-80
[13] = dose: 12.5 mg/kg/injection, schedule: Q01DX005 (ip), vehicle: Klucel (hydroxypropylcellulose) (HPC)
[14] = dose: 25.0 mg/kg/injection, schedule: Q01DX009 (ip), vehicle: saline with Tween-80
[15] = dose: 12.5 mg/kg/injection, schedule: Q01DX005 (ip), vehicle: saline with Tween-80
[16] = dose: 25.0 mg/kg/injection, schedule: Q01DX005 (ip), vehicle: saline with Tween-80
[17] = dose: 25.0 mg/kg/injection, schedule: Q01DX009 (ip), vehicle: saline

Measured: T/C

CC(=O)OCC1OC(n2cccc(OC(C)=O)c2=O)C(OC(C)=O)C1OC(C)=O (configuration not stated)
inactive: [1] 103 % of control | dose: 50.0 mg/kg/injection, schedule: Q01DX005 (ip), vehicle: suspension in saline 99 % of control | [2] 99 % of control | dose: 100.0 mg/kg/injection, schedule: Q01DX005 (ip), vehicle: suspension in saline 99 % of control | [3] 102 % of control | dose: 200.0 mg/kg/injection, schedule: Q01DX005 (ip), vehicle: suspension in saline 113 % of control | dose: 400.0 mg/kg/injection, schedule: Q01DX005 (ip), vehicle: saline 98 % of control | dose: 400.0 mg/kg/injection, schedule: Q01DX005 (ip), vehicle: suspension in saline 96 % of control

CCOC(=O)c1cn(C)c2c1C(=O)C(C(=O)OCC)CCN2C(=O)OCC (configuration not stated)
inactive: [4] 99 % of control | [5] 105 % of control | [6] 107 % of control

COc1cc(C2c3cc(OC(C)=O)c(OC)cc3CC3C(=O)OCC32)ccc1OC(C)=O (configuration not stated)
inactive: [7] 95 % of control | [8] 93 % of control | [9] 90 % of control

CCC#CCC1(CC#CCC)CC1C (configuration not stated)
inactive: [10] 100 % of control | [11] 99 % of control | [12] 107 % of control

Cc1cc(N/N=C/c2ccccn2)nc2ccccc12
inactive: [13] 101 % of control | dose: 25.0 mg/kg/injection, schedule: Q01DX005 (ip), vehicle: Klucel (hydroxypropylcellulose) (HPC) 112 % of control

C=CCNc1nnc(-c2ccccc2)s1
inactive: [4] 103 % of control | [5] 100 % of control | [6] 100 % of control

CCOC(=O)/C(C#N)=C/C=C1\C=CC=CN1C
inactive: dose: 12.5 mg/kg/injection, schedule: Q01DX009 (ip), vehicle: saline with Tween-80 95 % of control | [14] 86 % of control | [4] 90 % of control

C=C1CC2(CC3CCC2(C)C3(C)C)OC1=O (configuration not stated)
inactive: dose: 100.0 mg/kg/injection, schedule: Q01DX001 (ip), vehicle: saline 98 % of control | dose: 200.0 mg/kg/injection, schedule: Q01DX001 (ip), vehicle: saline 99 % of control | dose: 400.0 mg/kg/injection, schedule: Q01DX001 (ip), vehicle: saline 99 % of control

CC1C(=O)CCC2(C)CCC3C(OC(=O)C3(C)[Se]c3ccccc3)C12 (configuration not stated)
inactive: dose: 100.0 mg/kg/injection, schedule: Q04DX002 (ip), vehicle: saline with Tween-80 97 % of control | dose: 200.0 mg/kg/injection, schedule: Q04DX002 (ip), vehicle: saline with Tween-80 98 % of control

O=C(Nc1ccc(Cl)cc1)Nc1nnc(COc2ccc(Cl)c(Cl)c2)o1
inactive: dose: 15.0 mg/kg/injection, schedule: Q01DX005 (ip), vehicle: saline with Tween-80 87 % of control and 90 % of control | dose: 30.0 mg/kg/injection, schedule: Q01DX005 (ip), vehicle: saline with Tween-80 90 % of control | dose: 60.0 mg/kg/injection, schedule: Q01DX005 (ip), vehicle: saline with Tween-80 89 % of control and 93 % of control | dose: 120.0 mg/kg/injection, schedule: Q01DX005 (ip), vehicle: saline with Tween-80 98 % of control | dose: 240.0 mg/kg/injection, schedule: Q01DX005 (ip), vehicle: saline with Tween-80 91 % of control

COc1ccc(C)cc1NC(=O)SC(C)C
inactive: dose: 60.0 mg/kg/injection, schedule: Q01DX005 (ip), vehicle: Klucel (hydroxypropylcellulose) (HPC) 89 % of control | dose: 120.0 mg/kg/injection, schedule: Q01DX005 (ip), vehicle: Klucel (hydroxypropylcellulose) (HPC) 86 % of control | dose: 240.0 mg/kg/injection, schedule: Q01DX005 (ip), vehicle: Klucel (hydroxypropylcellulose) (HPC) 93 % of control

Cc1ccc(S(=O)(=O)Oc2ccc3sc4cccc(NCCN(C)C)c4c(=O)c3c2)cc1
inactive: [15] 104 % of control | [16] 93 % of control | [10] 90 % of control and 96 % of control | [11] 92 % of control and 94 % of control | [12] 92 % of control | dose: 400.0 mg/kg/injection, schedule: Q01DX005 (ip), vehicle: saline with Tween-80 94 % of control

CCCCCCC(=O)/C=C/c1cccc(OCc2ccccc2)c1
inactive: [7] 90 % of control | [8] 87 % of control | [9] 94 % of control

CCc1nc(N)nc(N)c1-c1ccc(N)cc1
inactive: [15] 104 % of control | [16] 100 % of control | [10] 98 % of control and 99 % of control

CC(C)(N)CNc1ccccc1
inactive: [17] 111 % of control | dose: 50.0 mg/kg/injection, schedule: Q01DX009 (ip), vehicle: saline 117 % of control | dose: 100.0 mg/kg/injection, schedule: Q01DX009 (ip), vehicle: saline 120 % of control

O=C(/C=C\c1cc2[nH]c1c(-c1ccccc1)c1nc(c(-c3ccccc3)c3ccc([nH]3)c(-c3ccccc3)c3nc(c2-c2ccccc2)C=C3)C=C1)NCCCn1ccnc1
inactive: dose: 50.0 mg/kg/injection, schedule: Q01DX001 (ip), vehicle: Klucel (hydroxypropylcellulose) (HPC) 100 % of control | dose: 100.0 mg/kg/injection, schedule: Q01DX001 (ip), vehicle: Klucel (hydroxypropylcellulose) (HPC) 94 % of control | dose: 200.0 mg/kg/injection, schedule: Q01DX001 (ip), vehicle: Klucel (hydroxypropylcellulose) (HPC) 93 % of control | dose: 400.0 mg/kg/injection, schedule: Q01DX001 (ip), vehicle: Klucel (hydroxypropylcellulose) (HPC) 96 % of control

N/C(=N/O)NO
inactive: [1] 112 % of control and 113 % of control | [2] 122 % of control

O=C(/C=C/c1ccco1)C1C(=O)CCC1=O
inactive: dose: 50.0 mg/kg/injection, schedule: Q01DX005 (ip), vehicle: Klucel + Tween-80 98 % of control | dose: 100.0 mg/kg/injection, schedule: Q01DX005 (ip), vehicle: Klucel + Tween-80 104 % of control

CCC(=O)C1C(=O)CC(=O)C(C)C1c1ccccc1OC (configuration not stated)
inactive: [10] 92 % of control | [11] 90 % of control | [12] 87 % of control

COC(=O)/C=C/c1ccc[n+]([O-])c1
inactive: [1] 99 % of control | [2] 98 % of control | [3] 99 % of control

O=C1NN=C(c2ccc(Br)cc2)CS1
inactive: [4] 92 % of control and 97 % of control | [5] 101 % of control and 87 % of control | [6] 113 % of control and 120 % of control

O=C1NC(=O)C2(CCCC2)c2ccncc21
inactive: dose: 6.25 mg/kg/injection, schedule: Q04DX002 (ip), vehicle: saline with Tween-80 96 % of control | dose: 12.5 mg/kg/injection, schedule: Q04DX002 (ip), vehicle: saline with Tween-80 96 % of control

COc1ccc(C2CC(=O)N(c3cccc(C)n3)C(=O)C2)cc1
inactive: dose: 100.0 mg/kg/injection, schedule: Q04DX003 (ip), vehicle: saline 100 % of control | dose: 200.0 mg/kg/injection, schedule: Q04DX003 (ip), vehicle: saline 100 % of control | dose: 400.0 mg/kg/injection, schedule: Q04DX003 (ip), vehicle: saline 108 % of control

CCC(C)NCCNCCNC(C)CC (configuration not stated)
inactive: dose: 6.25 mg/kg/injection, schedule: Q01DX009 (ip), vehicle: saline 100 % of control | dose: 12.5 mg/kg/injection, schedule: Q01DX009 (ip), vehicle: saline 100 % of control | [17] 100 % of control

COc1cc(/C=C/C(=O)C(CN(C)C)CN(C)C)cc(OC)c1OC
inactive: dose: 6.25 mg/kg/injection, schedule: Q01DX005 (ip), vehicle: Klucel (hydroxypropylcellulose) (HPC) 100 % of control | [13] 103 % of control

COc1cc(OC)c(C(=O)CCl)c(O)c1Cl
inactive: [14] 113 % of control | dose: 66.0 mg/kg/injection, schedule: Q01DX009 (ip), vehicle: saline with Tween-80 110 % of control
